# Assay results as given in ChEMBL document CHEMBL3885861, “Open TG-GATES”.
# Species on record: Rattus norvegicus
# Assay: Open TG-GATES - Regimen: Single
# Assay type: toxicity, organism-based, Sprague-Dawley
# Parameters: regimen Single, gender Male, age 6 weeks
# Conditions: in vivo, po, 0 mg/kg, route gavage, dose level Control; for gamma-GTP / ALP / ALT / AST / BUN / CRE / Ca / Cl / DBIL / GLC / IP / K / LDH / Na / PL / RALB / TBIL / TG / TP: tissue Plasma; for APTT / Bas / Eos / Fbg / Hb / Ht / Lym / MCH / MCV / Mono / Neu / PT / Plat / RBC / Ret / WBC: tissue Blood; for KIDNEY_L / KIDNEY_R / KIDNEY_TOTAL: tissue Kidney; for LIVER: tissue Liver
compound,measurement,setting,value
NC(=O)N1c2ccccc2C=Cc2ccccc21 [CARBAMAZEPINE],gamma-GTP,6 h,1.4 IU/L
same,TERMINAL_BW,9 h,211.7 g
same,APTT,9 h,22.5 s
same,Bas,9 h,0%
same,Eos,9 h,1%
same,Fbg,9 h,220 mg/dL
same,Hb,9 h,13 g/dL
same,Ht,9 h,38.2%
same,Lym,9 h,78.8%
same,MCH,9 h,20.9 pg
same,MCV,9 h,61.5 fL
same,Mono,9 h,2.2%
same,Neu,9 h,17.5%
same,PT,9 h,13.2 s
same,Plat,9 h,119.7 x10_4/uL
same,RBC,9 h,621.8 x10_4/ul
same,Ret,9 h,6.6%
same,WBC,9 h,89.4 x10_2/uL
same,KIDNEY_L,9 h,1 g
same,KIDNEY_R,9 h,1 g
same,KIDNEY_TOTAL,9 h,2 g
same,LIVER,9 h,9.3 g
same,ALP,9 h,824.8 IU/L
same,ALT,9 h,32 IU/L
same,AST,9 h,63.8 IU/L
same,BUN,9 h,9.8 mg/dL
same,CRE,9 h,0.4 mg/dL
same,Ca,9 h,10.3 mg/dL
same,Cl,9 h,102 meq/L
same,DBIL,9 h,0.07 mg/dL
same,GLC,9 h,202.8 mg/dL
same,IP,9 h,9.3 mg/dL
same,K,9 h,3.9 meq/L
same,LDH,9 h,170.4 IU/L
same,Na,9 h,140.2 meq/L
same,PL,9 h,127 mg/dL
same,RALB,9 h,3.3 g/dL
same,TBIL,9 h,0.1 mg/dL
same,TG,9 h,47 mg/dL
same,TP,9 h,5.3 g/dL
same,gamma-GTP,9 h,1 IU/L
same,TERMINAL_BW,24 h,225.7 g
same,APTT,24 h,21.9 s
same,Bas,24 h,0%
same,Eos,24 h,0.8%
same,Fbg,24 h,215.6 mg/dL
same,Hb,24 h,13.7 g/dL
same,Ht,24 h,40.7%
same,Lym,24 h,79.8%
same,MCH,24 h,21.5 pg
same,MCV,24 h,63.9 fL
same,Mono,24 h,2.4%
same,Neu,24 h,15.8%
same,PT,24 h,12.1 s
same,Plat,24 h,117.9 x10_4/uL
same,RBC,24 h,637.2 x10_4/ul
same,Ret,24 h,6%
same,WBC,24 h,90.1 x10_2/uL
same,KIDNEY_L,24 h,1 g
same,KIDNEY_R,24 h,1 g
same,KIDNEY_TOTAL,24 h,2 g
same,LIVER,24 h,10.4 g
same,ALP,24 h,990.6 IU/L
same,ALT,24 h,39.2 IU/L
same,AST,24 h,70.4 IU/L
same,BUN,24 h,15.6 mg/dL
same,CRE,24 h,0.4 mg/dL
same,Ca,24 h,10.6 mg/dL
same,Cl,24 h,102.4 meq/L
same,DBIL,24 h,0.088 mg/dL
same,GLC,24 h,207 mg/dL
same,IP,24 h,7.9 mg/dL
same,K,24 h,4 meq/L
same,LDH,24 h,199 IU/L
same,Na,24 h,140.4 meq/L
same,PL,24 h,146.2 mg/dL
same,RALB,24 h,3.4 g/dL
same,TBIL,24 h,0.1 mg/dL
same,TG,24 h,93.6 mg/dL
same,TP,24 h,5.6 g/dL
